Legend:
beluga AHR [1] = molecular target: T1, beluga AHR (Delphinapterus leucas, UniProt Q95LD9); format: binding
T1 sequence (Q95LD9 11-845): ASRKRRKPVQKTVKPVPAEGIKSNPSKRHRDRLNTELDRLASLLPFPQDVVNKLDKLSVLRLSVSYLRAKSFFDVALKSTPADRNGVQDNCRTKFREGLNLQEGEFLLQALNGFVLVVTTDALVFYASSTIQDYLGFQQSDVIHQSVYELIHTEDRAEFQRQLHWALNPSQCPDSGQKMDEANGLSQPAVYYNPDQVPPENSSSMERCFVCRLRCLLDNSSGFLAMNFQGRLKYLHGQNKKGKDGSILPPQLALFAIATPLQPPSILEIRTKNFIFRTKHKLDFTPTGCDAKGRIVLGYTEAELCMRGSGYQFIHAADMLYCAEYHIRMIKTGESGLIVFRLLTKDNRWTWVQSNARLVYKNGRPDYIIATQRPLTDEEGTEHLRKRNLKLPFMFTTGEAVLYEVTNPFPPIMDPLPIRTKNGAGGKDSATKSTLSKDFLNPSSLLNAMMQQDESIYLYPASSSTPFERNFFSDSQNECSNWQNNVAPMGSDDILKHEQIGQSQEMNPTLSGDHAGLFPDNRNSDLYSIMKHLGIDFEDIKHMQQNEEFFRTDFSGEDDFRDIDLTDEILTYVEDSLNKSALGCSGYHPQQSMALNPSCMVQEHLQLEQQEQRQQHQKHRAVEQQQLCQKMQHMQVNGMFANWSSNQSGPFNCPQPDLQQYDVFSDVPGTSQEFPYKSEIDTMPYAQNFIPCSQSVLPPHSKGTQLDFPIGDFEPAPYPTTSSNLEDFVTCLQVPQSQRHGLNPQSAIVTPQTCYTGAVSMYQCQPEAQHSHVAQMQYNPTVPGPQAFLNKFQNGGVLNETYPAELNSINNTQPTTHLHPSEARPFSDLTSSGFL

[2] = molecular target: T2, mouse AHR (Ah^b-1 allele) (Mus musculus, UniProt P30561); format: binding
T2 sequence (P30561 10-848): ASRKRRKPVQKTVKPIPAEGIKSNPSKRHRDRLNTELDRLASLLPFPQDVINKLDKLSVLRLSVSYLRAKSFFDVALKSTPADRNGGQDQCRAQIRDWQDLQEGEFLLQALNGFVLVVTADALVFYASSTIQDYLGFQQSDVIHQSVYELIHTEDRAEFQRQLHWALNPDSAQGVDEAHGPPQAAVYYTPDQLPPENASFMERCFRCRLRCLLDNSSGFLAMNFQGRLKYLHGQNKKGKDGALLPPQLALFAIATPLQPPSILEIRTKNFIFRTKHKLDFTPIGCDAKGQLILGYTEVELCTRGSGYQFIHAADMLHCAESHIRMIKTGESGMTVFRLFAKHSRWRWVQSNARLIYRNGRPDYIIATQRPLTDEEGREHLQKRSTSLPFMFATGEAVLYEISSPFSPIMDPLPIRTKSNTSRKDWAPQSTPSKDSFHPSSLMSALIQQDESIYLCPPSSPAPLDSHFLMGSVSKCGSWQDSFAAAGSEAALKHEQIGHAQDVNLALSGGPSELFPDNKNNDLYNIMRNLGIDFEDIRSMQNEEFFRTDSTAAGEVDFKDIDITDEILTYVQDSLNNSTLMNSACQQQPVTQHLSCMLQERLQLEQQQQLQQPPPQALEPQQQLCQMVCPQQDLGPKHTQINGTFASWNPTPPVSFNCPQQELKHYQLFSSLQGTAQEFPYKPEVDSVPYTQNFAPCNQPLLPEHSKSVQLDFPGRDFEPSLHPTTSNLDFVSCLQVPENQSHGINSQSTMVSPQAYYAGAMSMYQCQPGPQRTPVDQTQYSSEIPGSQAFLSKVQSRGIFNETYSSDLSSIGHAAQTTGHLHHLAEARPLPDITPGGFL

[3] = test system: mouse AHR (Ah^b-1 allele); format: binding; settings: mouse REP vs rat REP
beluga AHR [4] = settings: determined by saturation binding; ref Jensen and Hahn 2001; cited from earlier work

Clc1ccc(-c2ccc(Cl)c(Cl)c2Cl)c(Cl)c1Cl [PCB-128]
inhibition of [3H]TCDD binding reached by the curves (beluga AHR [1]; beluga AHR, maximum reached by competition curves): 90%
inhibition of [3H]TCDD binding reached by the curves ([2]; mouse AHR, maximum reached by competition curves): 80%

Clc1ccc(-c2cc(Cl)c(Cl)cc2Cl)cc1Cl [PCB-118]
fold lower REP compared to rat (beluga AHR [1]; beluga REP vs rat REP): 15 fold
fold lower REP compared to rat [3]: 10 fold

[3H]c1c(Cl)c(Cl)cc2c1Oc1cc(Cl)c(Cl)c([3H])c1O2 [[^3H]TCDD, 2,3,7,8-Tetrachloro[1,6-^3H]dibenzo-p-dioxin]
binding affinity for beluga AHR vs mouse AHR, fold higher (beluga AHR [4]): ~ 2 fold

Clc1ccc(-c2cc(Cl)c(Cl)c(Cl)c2)cc1 [PCB-81]
fold higher binding REP compared to rat (beluga AHR [1]; beluga REP vs rat REP): 14 fold
fold higher binding REP compared to rat [3]: 28 fold

Clc1cc2c(cc1Cl)Oc1cc(Cl)c(Cl)cc1O2 [TCDD, 2,3,7,8-tetrachlorodibenzo-p-dioxin, reference compound]
IC50 (beluga AHR [1]): 0.47 nM
Ki (beluga AHR [1]): 0.1 nM
Ki [2]: 0.36 nM
